Drawing on BindingDB's records for doi:10.1021/jm0704550 (Cnrs, 2007), this text covers Kb, IC50 and EC50 for 30 molecules.

The structures appear in SMILES notation.

The target in the first test is Growth hormone secretagogue receptor type 1 (Homo sapiens, UniProt Q92847). Kind of test: Receptor Binding Studies.
Chain of Growth hormone secretagogue receptor type 1 (Q92847 whole entry): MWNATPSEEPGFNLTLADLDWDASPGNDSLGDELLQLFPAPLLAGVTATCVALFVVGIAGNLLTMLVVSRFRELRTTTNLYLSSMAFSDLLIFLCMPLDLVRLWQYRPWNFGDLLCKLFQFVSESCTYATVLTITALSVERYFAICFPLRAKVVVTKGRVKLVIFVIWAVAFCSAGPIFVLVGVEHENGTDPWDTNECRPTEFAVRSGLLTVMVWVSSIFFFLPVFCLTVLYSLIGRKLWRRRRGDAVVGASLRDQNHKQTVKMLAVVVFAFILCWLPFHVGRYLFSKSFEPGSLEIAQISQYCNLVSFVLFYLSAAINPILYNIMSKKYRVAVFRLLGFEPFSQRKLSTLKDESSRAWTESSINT
Details: not given
`COc1ccc(Cn2c(CCc3c[nH]c4ccccc34)nnc2[C@@H](Cc2c[nH]c3ccccc23)NC(=O)C2CNCCN2)c(OC)c1` (mixture of isomers) [N-[(1R)-1-{4-[(2,4-dimethoxyphenyl)methyl]-5-[2-(1H-indol-3-yl)ethyl]-4H-1,2,4-triazol-3-yl}-2-(1H-indol-3-yl)ethyl]piperazine-2-carboxamide] yielded a Kb of 5 nM.

As a reminder, the IC50 is the point on the concentration scale where inhibition reaches its midpoint. A low value points to higher potency. In the case of `COc1ccc(Cn2c(CCc3ccccc3)nnc2[C@@H](Cc2c[nH]c3ccccc23)NC(=O)[C@H]2CCCCN2)c(OC)c1` [(2R)-N-[(1R)-1-{4-[(2,4-dimethoxyphenyl)methyl]-5-(2-phenylethyl)-4H-1,2,4-triazol-3-yl}-2-(1H-indol-3-yl)ethyl]piperidine-2-carboxamide], the 50% inhibitory concentration (IC50) came to 134 nM. In other words, the sub-micromolar range.

Molecule `CCc1ccc(Cn2c(CCc3ccccc3)nnc2[C@@H](Cc2c[nH]c3ccccc23)NC(=O)[C@H]2CCCCN2)cc1` [(2R)-N-[(1R)-1-{4-[(4-ethylphenyl)methyl]-5-(2-phenylethyl)-4H-1,2,4-triazol-3-yl}-2-(1H-indol-3-yl)ethyl]piperidine-2-carboxamide] yielded an IC50 of 375 nM.

For the molecule `COc1ccc(Cn2c(CCc3c[nH]c4ccccc34)nnc2[C@@H](Cc2c[nH]c3ccccc23)NC(=O)[C@H]2CCCCN2)cc1` [(2R)-N-[(1R)-2-(1H-indol-3-yl)-1-{5-[2-(1H-indol-3-yl)ethyl]-4-[(4-methoxyphenyl)methyl]-4H-1,2,4-triazol-3-yl}ethyl]piperidine-2-carboxamide], the Kb is 8 nM.

One may read the EC50 as the concentration that produces a half-maximal response. A high value points to lower potency in that assay. Turning to `COc1ccc(-n2c(CCc3ccccc3)nnc2[C@@H](Cc2c[nH]c3ccccc23)NC(=O)C2CCNCC2)c(OC)c1` [N-[(1R)-1-[4-(2,4-dimethoxyphenyl)-5-(2-phenylethyl)-4H-1,2,4-triazol-3-yl]-2-(1H-indol-3-yl)ethyl]piperidine-4-carboxamide], the EC50 was determined as 14 nM.

Molecule `O=C(N[C@H](Cc1c[nH]c2ccccc12)c1nnc(CCc2ccccc2)n1Cc1ccco1)C1CCNCC1` [N-[(1R)-1-[4-(furan-2-ylmethyl)-5-(2-phenylethyl)-4H-1,2,4-triazol-3-yl]-2-(1H-indol-3-yl)ethyl]piperidine-4-carboxamide] returned an EC50 of 183 nM and a concentration for half-maximal inhibition (IC50) of 560 nM.

For `O=C(N[C@H](Cc1c[nH]c2ccccc12)c1nnc(Cc2ccccc2)n1Cc1ccccn1)C1CCNCC1` [N-[(1R)-1-[5-benzyl-4-(pyridin-2-ylmethyl)-4H-1,2,4-triazol-3-yl]-2-(1H-indol-3-yl)ethyl]piperidine-4-carboxamide], the IC50 is above 1000 nM.

In turn, `COc1ccc(Cn2c(CCc3ccccc3)nnc2[C@@H](Cc2c[nH]c3ccccc23)NC(=O)C2CNCCN2)c(OC)c1` (stereo partly drawn) [N-[(1R)-1-{4-[(2,4-dimethoxyphenyl)methyl]-5-(2-phenylethyl)-4H-1,2,4-triazol-3-yl}-2-(1H-indol-3-yl)ethyl]piperazine-2-carboxamide] displayed an EC50 of 19.6 nM.

Molecule `COc1ccc(Cn2c(CCc3ccccc3)nnc2[C@@H](Cc2c[nH]c3ccccc23)NC(=O)C2CCNCC2)c(OC)c1` [N-[(1R)-1-{4-[(2,4-dimethoxyphenyl)methyl]-5-(2-phenylethyl)-4H-1,2,4-triazol-3-yl}-2-(1H-indol-3-yl)ethyl]piperidine-4-carboxamide] yielded an EC50 of 6.1 nM.

Consider `COc1ccc(Cn2c(CCc3c[nH]c4ccccc34)nnc2[C@@H](Cc2c[nH]c3ccccc23)NC(=O)C2CCCCN2)c(OC)c1` (stereo partly drawn) [N-[(1R)-1-{4-[(2,4-dimethoxyphenyl)methyl]-5-[2-(1H-indol-3-yl)ethyl]-4H-1,2,4-triazol-3-yl}-2-(1H-indol-3-yl)ethyl]piperidine-2-carboxamide], for which the Kb came out at 18 nM.

As for `CCc1ccc(Cn2c(CCc3ccccc3)nnc2[C@@H](Cc2c[nH]c3ccccc23)NC(=O)C2CNCCN2)cc1` (stereo partly drawn) [N-[(1R)-1-{4-[(4-ethylphenyl)methyl]-5-(2-phenylethyl)-4H-1,2,4-triazol-3-yl}-2-(1H-indol-3-yl)ethyl]piperazine-2-carboxamide], the response was half-maximal at 143 nM (EC50) and the half-maximal inhibitory concentration (IC50) was 178 nM.

Regarding `O=C(N[C@H](Cc1c[nH]c2ccccc12)c1nnc(CCc2ccccc2)n1-c1ccccc1)C1CCNCC1` [N-[(1R)-2-(1H-indol-3-yl)-1-[4-phenyl-5-(2-phenylethyl)-4H-1,2,4-triazol-3-yl]ethyl]piperidine-4-carboxamide], the half-maximal inhibitory concentration (IC50) came out at 468 nM. This lies in the sub-micromolar range.

`COc1ccc(Cn2c(CCc3ccccc3)nnc2[C@@H](Cc2c[nH]c3ccccc23)NC(=O)C2CCCCC2)cc1` [N-[(1R)-2-(1H-indol-3-yl)-1-{4-[(4-methoxyphenyl)methyl]-5-(2-phenylethyl)-4H-1,2,4-triazol-3-yl}ethyl]cyclohexanecarboxamide]: the response was half-maximal at 390 nM (EC50).

`COc1ccc(Cn2c(CCc3ccccc3)nnc2[C@@H](Cc2c[nH]c3ccccc23)NC(=O)C2CCOCC2)cc1` [N-[(1R)-2-(1H-indol-3-yl)-1-{4-[(4-methoxyphenyl)methyl]-5-(2-phenylethyl)-4H-1,2,4-triazol-3-yl}ethyl]oxane-4-carboxamide] registered a half-inhibitory concentration (IC50) of 6 nM and a Kb of 51 nM.

Still in this test, the particulars now being: pH 7.3; 25 °C.
Consider `COc1ccc(Cn2c(CCc3c[nH]c4ccccc34)nnc2[C@@H](Cc2c[nH]c3ccccc23)NC(=O)C(C)(C)N)cc1`, for which the Kb was 4 nM.

On to `COc1ccc(Cn2c(CCc3c[nH]c4ccccc34)nnc2[C@@H](Cc2c[nH]c3ccccc23)NC(=O)[C@@H]2CCCN2)c(OC)c1`, for which the Kb was 11 nM.

`COc1ccc(Cn2c(CCc3c[nH]c4ccccc34)nnc2[C@@H](Cc2c[nH]c3ccccc23)NC(=O)CN)c(OC)c1` [2-amino-N-[(1R)-1-{4-[(2,4-dimethoxyphenyl)methyl]-5-[2-(1H-indol-3-yl)ethyl]-4H-1,2,4-triazol-3-yl}-2-(1H-indol-3-yl)ethyl]acetamide] came in with a Kb of 27 nM.

Consider `COc1ccc(Cn2c(CCc3ccccc3)nnc2[C@@H](Cc2c[nH]c3ccccc23)NC(=O)CCN)cc1` [3-amino-N-[(1R)-2-(1H-indol-3-yl)-1-{4-[(4-methoxyphenyl)methyl]-5-(2-phenylethyl)-4H-1,2,4-triazol-3-yl}ethyl]propanamide], for which the midpoint of the response, the EC50, lay at 256 nM.

The molecule `COc1ccc(Cn2c(CCc3ccccc3)nnc2[C@@H](Cc2c[nH]c3ccccc23)NC(=O)[C@H]2CCCN2)cc1` [(2R)-N-[(1R)-2-(1H-indol-3-yl)-1-{4-[(4-methoxyphenyl)methyl]-5-(2-phenylethyl)-4H-1,2,4-triazol-3-yl}ethyl]pyrrolidine-2-carboxamide] came in with an IC50 of 32 nM and a Kb of 8 nM.

The molecule `COc1ccc(Cn2c(CCc3c[nH]c4ccccc34)nnc2[C@@H](Cc2c[nH]c3ccccc23)NC(=O)[C@H]2CCCN2)cc1` [(2R)-N-[(1R)-2-(1H-indol-3-yl)-1-{5-[2-(1H-indol-3-yl)ethyl]-4-[(4-methoxyphenyl)methyl]-4H-1,2,4-triazol-3-yl}ethyl]pyrrolidine-2-carboxamide] returned a Kb of 7 nM.

`CCc1ccc(Cn2c(CCc3ccccc3)nnc2[C@@H](Cc2c[nH]c3ccccc23)NC(=O)[C@H](C)N)cc1` [(2S)-2-amino-N-[(1R)-1-{4-[(4-ethylphenyl)methyl]-5-(2-phenylethyl)-4H-1,2,4-triazol-3-yl}-2-(1H-indol-3-yl)ethyl]propanamide] displayed an IC50 of 275 nM.

`COc1ccc(Cn2c(CCc3ccccc3)nnc2[C@@H](Cc2c[nH]c3ccccc23)NC(=O)[C@@H](N)Cc2ccccc2)cc1` [(2S)-2-amino-N-[(1R)-2-(1H-indol-3-yl)-1-{4-[(4-methoxyphenyl)methyl]-5-(2-phenylethyl)-4H-1,2,4-triazol-3-yl}ethyl]-3-phenylpropanamide] gave a Kb of 24 nM.

`COc1ccc(Cn2c(CCc3ccccc3)nnc2[C@@H](Cc2c[nH]c3ccccc23)NC(=O)[C@@H]2CCCN2)c(OC)c1` [(2S)-N-[(1R)-1-{4-[(2,4-dimethoxyphenyl)methyl]-5-(2-phenylethyl)-4H-1,2,4-triazol-3-yl}-2-(1H-indol-3-yl)ethyl]pyrrolidine-2-carboxamide] returned a Kb of 32 nM.

`CCc1ccc(Cn2c(CCc3ccccc3)nnc2[C@@H](Cc2c[nH]c3ccccc23)NC(=O)[C@@H]2CCCN2)cc1` [(2S)-N-[(1R)-1-{4-[(4-ethylphenyl)methyl]-5-(2-phenylethyl)-4H-1,2,4-triazol-3-yl}-2-(1H-indol-3-yl)ethyl]pyrrolidine-2-carboxamide] gave an IC50 of 490 nM. In other words, the sub-micromolar range.

Molecule `O=C(N[C@H](Cc1c[nH]c2ccccc12)c1nnc(CCc2ccccc2)n1-c1ccccc1)[C@@H]1CCCN1` [(2S)-N-[(1R)-2-(1H-indol-3-yl)-1-[4-phenyl-5-(2-phenylethyl)-4H-1,2,4-triazol-3-yl]ethyl]pyrrolidine-2-carboxamide] had a concentration for half-maximal inhibition (IC50) above 1000 nM.

Turning to `COc1ccc(Cn2c(CCc3ccccc3)nnc2[C@@H](Cc2c[nH]c3ccccc23)NC(=O)[C@@H]2CCCN2)cc1` [(2S)-N-[(1R)-2-(1H-indol-3-yl)-1-{4-[(4-methoxyphenyl)methyl]-5-(2-phenylethyl)-4H-1,2,4-triazol-3-yl}ethyl]pyrrolidine-2-carboxamide], the IC50 was 9.5 nM and the Kb was 13 nM.

Molecule `COc1ccc(Cn2c(CCc3c[nH]c4ccccc34)nnc2[C@@H](Cc2c[nH]c3ccccc23)NC(=O)[C@@H]2CCCN2)cc1` [(2S)-N-[(1R)-2-(1H-indol-3-yl)-1-{5-[2-(1H-indol-3-yl)ethyl]-4-[(4-methoxyphenyl)methyl]-4H-1,2,4-triazol-3-yl}ethyl]pyrrolidine-2-carboxamide] had a Kb of 6 nM.

`COc1ccc(Cn2c(CCc3ccccc3)nnc2[C@@H](Cc2c[nH]c3ccccc23)NC(=O)[C@H]2CCCNC2)cc1` [(3S)-N-[(1R)-2-(1H-indol-3-yl)-1-{4-[(4-methoxyphenyl)methyl]-5-(2-phenylethyl)-4H-1,2,4-triazol-3-yl}ethyl]piperidine-3-carboxamide] had a Kb of 10 nM.

For the molecule `COc1ccc(Cn2c(CCc3ccccc3)nnc2[C@@H](Cc2c[nH]c3ccccc23)NC(=O)[C@H](C)N)cc1` [(S)-N-((R)-1-(4-(4-Methoxybenzyl)-5-phenethyl-4H-1,2,4-triazol-3-yl)-2-(1H-indol-3-yl)ethyl)-2-aminopropanamide], the IC50 is 113 nM.

In turn, `O=C(N[C@H](Cc1c[nH]c2ccccc12)c1nnc(CCc2ccccc2)n1Cc1ccccn1)C1CCCNC1` (stereo partly drawn) [N-[(1R)-2-(1H-indol-3-yl)-1-[5-(2-phenylethyl)-4-(pyridin-2-ylmethyl)-4H-1,2,4-triazol-3-yl]ethyl]piperidine-3-carboxamide] returned a 50% inhibitory concentration (IC50) above 1000 nM.
